Our source for the IC50 values is US20190194148A1, “TETRAZOLE-CONTAINING 1,2-CYCLOPROPANE-CARBOXAMIDES” (Bayer Pharma Aktiengesellschaft, priority 2017, published 2019).

In test [1] the target is T1, human B1 receptor (Homo sapiens, UniProt P46663).
T1 construct: host or cells: CHO-K1
T1 sequence (P46663 1-353): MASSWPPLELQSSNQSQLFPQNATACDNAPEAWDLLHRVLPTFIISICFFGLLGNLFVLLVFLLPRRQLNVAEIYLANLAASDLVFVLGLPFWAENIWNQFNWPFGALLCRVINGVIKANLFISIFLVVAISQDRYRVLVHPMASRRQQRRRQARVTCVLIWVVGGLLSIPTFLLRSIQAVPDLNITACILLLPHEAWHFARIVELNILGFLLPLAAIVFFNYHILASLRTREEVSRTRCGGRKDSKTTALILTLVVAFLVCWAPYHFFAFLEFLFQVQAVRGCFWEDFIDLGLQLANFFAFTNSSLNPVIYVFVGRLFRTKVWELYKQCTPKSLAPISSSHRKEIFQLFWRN
Kind of test: Calcium flux assay (FLIPR) with recombinant CHO-K1 cells expressing human B1 receptor. The format is cell-based. The essentials:
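Indicator-loaded CHO-K1 cells expressing human B1 receptor were pre-incubated with compound (8 concentrations, triplicate, 1% DMSO) for 30 min at 28° C, in assay buffer with or without 0.1% BSA (hB1 IC50 vs free IC50). They were then challenged with Lys-(Des-Arg)-bradykinin from plates at 3.5×EC90, with peak FLIPR fluorescence read at 538 nm. IC50 was fitted from % response between DMSO and full block by 20 μM Lys-(Des-Arg-Leu)-bradykinin.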

Test [2] concerns the target T2, native human B1 receptors (Homo sapiens, UniProt P46663).
T2 construct: which express native human B1 receptors after induction with human IL-1; Coriell Institute; host or cells: IMR-90 human foetal lung fibroblasts, induced with human IL-1beta
T2 sequence (P46663 1-353): T1 sequence (P46663 1-353)
Nature of the test: Calcium flux assay (FLIPR) with IMR-90 human fibroblasts for Bradykinin B1 receptor antagonist. Particulars: IMR-90 human foetal lung fibroblasts after induction with human IL-1; 0.1% BSA in assay buffer; read-out: hB1 IC50 IMR90. The format is cell-based. As to the method:
Calcium Flux Assay (FLIPR) with Human Fibroblasts for Bradykinin B1 Receptor Antagonist (hB1 IMR-90 IC50)
The Calcium flux Assay was carried out utilising IMR-90 human foetal lung fibroblasts (American Type Culture Collection, Rockville, Md.; and Coriell Institute, Camden, N.J.), which express native human B1 receptors after induction with human IL-1[…].
The fibroblasts were cultured in complete growth media comprised of Dulbecco's modified Eagle's medium (DMEM; Sigma) containing 10% foetal bovine serum, 4 mM L-glutamine, and 1% nonessential amino acids. The cells were maintained in a humidified atmosphere with 5% CO2 at 37° C. and were sub-cultured at a ratio of 1:3, every other day.
For the assay, IMR-90 fibroblasts were harvested using TrypLE Express (GIBCO/Invitrogen) and seeded into 384-well plates (Corning Cellbinding Surface, Cat. 3683) at a density of 15000 cells/well. The following day, cells were treated with 0.35 ng/mL human IL-1[…] in 10% FBS/MEM for 3 h to up-regulate B1 receptors. Induced cells were loaded with fluorescent calcium indicator by incubation with 2.5 μM Fluo-4/AM (Invitrogen) at 37° C., 5% CO2 for 2 h in the presence of 2.5 mM probenecid in 1% FBS/MEM. Extracellular dye was removed by washing with assay buffer (2.5 mM probenecid and 0.1% BSA in 20 mM HEPES/HBSS without bicarbonate or phenol red, pH 7.5). Example compounds were assayed at 8 concentrations in triplicate. […] A peptide antagonist Lys-(Des-Arg-Leu)-Bradykinin (Bachem, Brackley) at 20 µM was used to determine the full inhibition as control. IC50 values were determined by the same way described for the FLIPR assay with recombinant cells.
A general note: Calcium assays in cells follow changes in intracellular calcium, usually with a dye or a luminescent sensor.

[3] abbreviates: absence of 0.1% BSA in assay buffer, read-out: hB1 free IC50.
The mark [4] stands for this setting: presence of 0.1% BSA in assay buffer, read-out: hB1 IC50.

Usually IC50 stands for the concentration needed to halve the response being measured.

Each structure is given as a SMILES string. Like-named read-outs stand apart in the source and are kept apart here.

Regarding `CCOc1ccc(-c2ccc(NC(=O)C3CC3c3ccc(Cl)cc3)cc2-c2nnn[nH]2)cn1` (racemic) [Example 17, 2-(4-Chlorophenyl)-N-[4-(6-ethoxypyridin-3-yl)-3-(1H-tetrazol-5-yl)phenyl]cyclopro-panecarboxamide], the IC50 came to 0.005 µM in test [1] (setting [3]), 0.097 µM in test [1] (setting [4]) and 0.012 µM in test [2].

With `CCOc1ccc(-c2ccc(NC(=O)C3(C)CC3c3ccccc3)cc2-c2nnn[nH]2)cn1` (racemic) [Example 21, [4-(6-Ethoxypyridin-3-yl)-3-(1H-tetrazol-5-yl)phenyl]-1-methyl-2-phenylcyclopropane-carboxamide], the concentration for half-maximal inhibition (IC50) in test [1] (setting [3]) was 0.014 µM; in test [1] (setting [4]) it was 0.022 µM; in test [2], 0.022 µM.

On to `COc1ccc(-c2cc(F)c(NC(=O)C3CC3c3cccc(C)c3)cc2-c2nnn[nH]2)cc1` (racemic) [Example 55, N-[5-Fluoro-4′-methoxy-2-(1H-tetrazol-5-yl)biphenyl-4-yl]-2-(3-methylphenyl)cyclopro-panecarboxamide], for which the IC50 in test [1] (setting [3]) was determined as 0.019 µM; in test [1] (setting [4]), 0.01 µM; in test [2], 0.022 µM.

Turning to `COc1ccc(-c2ccc(NC(=O)C3CC3C3CCCCC3)cc2-c2nnn[nH]2)cc1OC` (single isomer, unassigned) [Example 14, 2-Cyclohexyl-N-[3′,4′-dimethoxy-2-(1H-tetrazol-5-yl)biphenyl-4-yl]cyclopropane-carboxamide], the IC50 came out at 0.027 µM in test [1] (setting [4]) and 0.02 µM in test [2].

Take `CCOc1ccc(-c2cc(O)c(NC(=O)C3CC3c3cccc(C)c3)cc2-c2nnn[nH]2)cn1` (racemic) [Example 51, N-[4-(6-Ethoxypyridin-3-yl)-2-hydroxy-5-(1H-tetrazol-5-yl)phenyl]-2-(3-methylphenyl)cyclopro-panecarboxamide]: the IC50 in test [1] (setting [3]) worked out at 0.003 µM; in test [1] (setting [4]), 0.011 µM; in test [2] it was 0.008 µM.

In the case of `CCOc1ccc(-c2c(F)cc(NC(=O)C3CC3c3ccc(Cl)cc3)cc2-c2nnn[nH]2)cn1` (racemic) [Example 61, 2-(4-chlorophenyl)-N-[4-(6-ethoxypyridin-3-yl)-3-fluoro-5-(1H-tetrazol-5-yl)phenyl]cyclopropane-carboxamide], the 50% inhibitory concentration (IC50) was 0.012 µM in test [1] (setting [3]) and 0.044 µM in test [2].

As to `Cc1cccc(C2CC2C(=O)Nc2ccc(-c3ccc(OC(C)C)nc3)c(-c3nnn[nH]3)c2)c1` (racemic) [Example 78, N-[4-(6-isopropoxypyridin-3-yl)-3-(1H-tetrazol-5-yl)phenyl]-2-(3-methylphenyl)cyclopro-panecarboxamide], the IC50 was 0.01 µM in test [1] (setting [4]) and 0.009 µM in test [2].

With `CCOc1ccc(-c2cc(C)c(NC(=O)C3CC3c3ccc(Cl)cc3)cc2-c2nnn[nH]2)cn1` (racemic) [Example 64, 2-(4-Chlorophenyl)-N-[4-(6-ethoxypyridin-3-yl)-2-methyl-5-(1H-tetrazol-5-yl)phenyl]cyclopropane-carboxamide], the IC50 turned out to be 0.015 µM in test [1] (setting [3]), 0.037 µM in test [1] (setting [4]) and 0.063 µM in test [2].

Consider `COc1ccc(-c2ccc(NC(=O)C3CC3c3ccccc3)cc2-c2nnn[nH]2)cc1OC` (racemic) [Example 1, N[3′,4′-dimethoxy-2-(1H-tetrazol-5-yl)biphenyl-4-yl]-2-phenylcyclopropanecarboxamide], for which, in test [1] (setting [4]), the IC50 was 0.209 µM.

For the molecule `COc1ccc(-c2ccc(NC(=O)C3CC3c3ccc(Cl)cc3)cc2-c2nnn[nH]2)cc1C` (racemic) [Example 34, 2-(4-chlorophenyl)-N-[4′-methoxy-3′-methyl-2-(1H-tetrazol-5-yl)biphenyl-4-yl]cyclopropanecarbox-amide], the 50% inhibitory concentration (IC50) in test [1] (setting [4]) was found to be 0.232 µM.

As for `COc1ccc(-c2ccc(NC(=O)C3CC3c3ccc(C)cc3)cc2-c2nnn[nH]2)cc1OC` (racemic) [Example 10, N-[3′,4′-dimethoxy-2-(1H-tetrazol-5-yl)biphenyl-4-yl]-2-(4-methylphenyl)cyclopro-panecarboxamide], the half-maximal inhibitory concentration (IC50) in test [1] (setting [4]) was found to be 0.033 µM.

Regarding `CCOc1cncc(-c2ccc(NC(=O)C3CC3c3cccc(C)c3)cc2-c2nnn[nH]2)c1` (racemic) [Example 23, N-[4-(5-Ethoxypyridin-3-yl)-3-(1H-tetrazol-5-yl)phenyl]-2-(3-methylphenyl)cyclopro-panecarboxamide], the IC50 in test [1] (setting [4]) turned out to be 0.303 µM.

As to `COc1ccc(-c2ccc(NC(=O)C3CC3C3CCCCC3)cc2-c2nnn[nH]2)cc1Cl` (racemic) [Example 40, N-[3′-chloro-4′-methoxy-2-(1H-tetrazol-5-yl)biphenyl-4-yl]-2-cyclohexylcyclopropane-carboxamide], the IC50 in test [1] (setting [4]) was 1.03 µM.

Regarding `CCOc1ccc(-c2ccc(NC(=O)C3CC3c3cccc(C)c3)cc2-c2nnn[nH]2)cc1OC` (racemic) [Example 77, N-[4′-ethoxy-3′-methoxy-2-(1H-tetrazol-5-yl)biphenyl-4-yl]-2-(3-methylphenyl)cyclopro-panecarboxamide], in test [1] (setting [4]), the IC50 was determined as 0.012 µM.

With `O=C(Nc1ccc(-n2cc(C(F)(F)F)cn2)c(-c2nnn[nH]2)c1)C1CC1c1ccc(Cl)cc1` (racemic) [Example 46, 2-(4-Chlorophenyl)-N-{3-(1H-tetrazol-5-yl)-4-[4-(trifluoromethyl)-1H-pyrazol-1-yl]phenyl}cyclopropane-carboxamide], in test [1] (setting [3]), the IC50 was determined as 1.18 µM.

Consider `CC[C@@H]1CCN(c2ccc(NC(=O)C3CC3c3ccc(Cl)cc3)cc2-c2nnn[nH]2)C1=O` (stereo partly drawn) [Example 75, 2-(4-Chlorophenyl)-N-{4-[(3R)-3-ethyl-2-oxopyrrolidin-1-yl]-3-(1H-tetrazol-5-yl)phenyl}cyclopropane-carboxamide], for which the IC50 in test [1] (setting [3]) was determined as 0.458 µM.

For `COc1cncc(-c2cc(C)c(NC(=O)C3CC3c3cccc(C)c3)cc2-c2nnn[nH]2)c1` (racemic) [Example 68, N-[4-(5-Methoxypyridin-3-yl)-2-methyl-5-(1H-tetrazol-5-yl)phenyl]-2-(3-methylphenyl)cyclo-propanecarboxamide], in test [1] (setting [4]), the IC50 is 0.336 µM.

Regarding `CC(C)(C)c1cn(-c2ccc(NC(=O)C3CC3c3ccc(Cl)cc3)cc2-c2nnn[nH]2)cn1` (single isomer, unassigned) [Example 85, N-[4-(4-tert-butyl-1H-imidazol-1-yl)-3-(1H-tetrazol-5-yl)phenyl]-2-(4-chlorophenyl)cyclopropanecarboxamide], the IC50 in test [1] (setting [3]) came out at 0.147 µM.

In the case of `CCOc1ccc(-c2cc(C)c(NC(=O)C3CC3C3CCCCC3)cc2-c2nnn[nH]2)cn1` (racemic) [Example 65, 2-Cyclohexyl-N-[4-(6-ethoxypyridin-3-yl)-2-methyl-5-(1H-tetrazol-5-yl)phenyl]cyclopropane-carboxamide], the IC50 in test [1] (setting [4]) is 0.247 µM.

Regarding `O=C(Nc1ccc(-c2ccc(C(F)(F)F)nc2)c(-c2nnn[nH]2)c1)C1CC1c1ccc(Cl)cc1` (racemic) [Example 79, 2-(4-chlorophenyl)-N-{3-(1H-tetrazol-5-yl)-4-[6-(trifluoro-methyl)pyridin-3-yl]phenyl}cyclopropane-carboxamide], the IC50 in test [1] (setting [3]) came to 0.071 µM; in test [1] (setting [4]), 6.46 µM.

As for `O=C(Nc1cc(-c2nnn[nH]2)c(-c2ccc(C(F)(F)F)nc2)cc1O)C1CC1c1ccc(Cl)cc1` (stereo not drawn) [Example 83, 2-(4-chlorophenyl)-N-[2-hydroxy-5-(1H-tetrazol-5-yl)-4-[6-(trifluoromethyl)-3-pyridyl]phenyl]cyclo-propanecarboxamide], the IC50 in test [1] (setting [3]) is 0.188 µM; in test [1] (setting [4]), 0.484 µM.
